Article PMC5442318, “Hundreds of dual-stage antimalarial molecules discovered by a functional gametocyte screen” (Nature Communications, 2017)
Like-named read-outs stand apart in the source and are kept apart here.

Key:
[1] = system: P. falciparum stages IV–V gametocytes; experiment: Gametocytocidal ATP-depletion assay (gametocyte ATP bioluminescence); assay type: cell-based, Plasmodium falciparum
Description: In parallel, the set of confirmed hits from the Pf FGAA screen was cross-compared in the gametocyte ATP-depletion assay, at 2 μM single concentration (Supplementary Data 1). This assay monitors ATP levels as surrogate of gametocyte viability.
‘Viability' of mature gametocytes was determined using the gametocyte ATP bioluminiscence assay. Briefly, stages IV–V gametocyte cultures were double-purified by differential sedimentation followed by magnetic isolation. Then, parasites (50 μl per well containing 12,500 gametocytes) were added to compound pre-dispensed 384-well plates (781091, Greiner Bio-One) and incubated at 37 °C for 48 h (3% O2, 5% CO2 and 92% N2). BacTiter-Glo kit (G8231, Promega) was used to determine the ATP levels of ‘live' parasites according to the manufacturer's instructions. After reagent addition (50 μl per well), luminescence of the plates was measured using a microplate reader (HTS counter Victor, Wallac).

HepG2 cells = experiment: HepG2 cytotoxicity assay; assay type: cell-based
Description: After incubation, plates and CellTiter-Glo Reagent (G7571, Promega) were equilibrated at room temperature for 30 min before proceeding to develop the luminescent signal. Using a Multidrop combi dispenser, 25 μl per well of the signal developer were added to the plates and after 10 min at room temperature for stabilization, plates were read on the ViewLux system (Perkin Elmer).

[2] = system: P. falciparum asexual blood stages; settings: read-out: Pf Asexual blood stages XC50, cited from earlier work
[3] = system: P. falciparum stage V female gametocytes; experiment: P. falciparum female gametocyte activation assay (Pf FGAA), 24 h or 48 h preincubation, Pfs25 expression readout; assay type: cell-based, Plasmodium falciparum NF54; settings: mean, read-out: Gametocytes mean Pf FGAA IC50
Description: P. falciparum NF54 (originally isolated from an imported malaria case in the Netherlands in the 1980s; BEI Resources, cat. no. MRA-1000) asexual-stage culture was performed as described by Trager and Jensen[37]. Cultures synchronized at the ring stage were used to start gametocyte cultures (day 0) at 1% parasitaemia and 4% haematocrit in 200 ml final volume using culture bottles (Nalgene 3110-42, Thermo Scientific). Complete culture medium (RPMI 1640 supplemented with 25 mM HEPES, 50 μg ml^−1 hypoxanthine, 2 g l^−1 NaHCO3 and 10% pooled human male type A+ serum) was totally replaced daily for 14 days without fresh erythrocyte addition. Human serum was obtained from Interstate Blood Bank, A^+ serotype; no aspirin 2 h before drawing and no antimalarials 2 weeks before drawing. To ensure a stable temperature at 37 °C, which is crucial for gametocyte production and maturation, pre-warmed medium and a slide warmer (XH-2001, Premiere) were used. Under these conditions, parasitaemia reaches a peak of asexual stages on days 4–5, and the first gametocytes are differentiated in culture on day 6. Sexual-stage development was monitored microscopically by Giemsa-stained thin blood smears at day 7 (mainly asexual stages and stages I to III gametocytes) and day 14 (stages IV and V gametocytes).
Cultures showing mainly stage V gametocytes were purified by differential sedimentation as previously reported. The gametocyte concentration was adjusted to plate 8,000 gametocytes per well (100 μl per well) in 384-well poly-D-lysine coated plates (781946, Greiner Bio-One) containing the compounds to test. […] Female gametocyte activation was then triggered by temperature drop and addition of xanthurenic acid (D120804, Sigma) as previously described. To detect female gametes, monoclonal anti-Pfs25 antibody[38] 4B7 (BEI Resources (formerly MR4), cat. no. MRA-315) conjugated to the Cy3 fluorochrome (GE Healthcare) was added to ookinete medium (RPMI 1640 supplemented with 25 mM HEPES, 50 μg ml^−1 hypoxanthine, 2 g l^−1 NaHCO3, 100 μM xanthurenic acid and 20% human serum) at a final concentration of 0.5 μg ml^−1. Activated cultures were then kept at 26 °C for 24 h protected from light, and image acquisition was performed in the Opera High-Content Screening System (PerkinElmer). Using × 10 air objective, five images per well were taken using 532 nm excitation. Images were analysed with a Columbus image data storage and analysis system (PerkinElmer) based on a script specifically designed for this assay that considers size, roundness and intensity of fluorescence of the female activated gametocytes.
Compounds were dissolved in 100% DMSO and dispensed in the 384-well plates using an Echo-CRS liquid handler. Compounds were tested in 2–3 independent experiments. […] Based on that, Z′ factor was calculated for each plate and only those ones with values higher than 0.4 were considered acceptable for data analysis.
Assay performance statistics, such as signal to background ratio, Z′ and robust 3 s.d. activity cut-off were calculated using templates in ActivityBase XE (IDBS, Guilford, Surrey, UK). Hit population analysis and visualization were conducted using Spotfire DecisionSite (Spotfire, Inc., Somerville, MA, USA). The pIC50 (−log IC50) values were obtained using the ActivityBase XE nonlinear regression function in the full curve analysis bundle.

[4] = TCAMS data, ref 1 (Gamo et al., 2010)
[5] = TCAMS asexual blood stage data, ref 1 (Gamo, F. J. et al., Nature 465, 305-310, 2010)
[6] = P. falciparum female gametocytes

Compound	Gametocytes mean ATP inhibition at 2µM (%) [1] [%]	IC50 [2, 4] [nM]	IC50 [3] [nM]	Gametocytes mean ATP inhibition at 2µM [1] [%]	IC50 [2, 5] [nM]	IC50 [3, 6] [nM]	further results
COc1c(OC)c(OC)c2ccccc2c1CNCCCCCCNCc1c(OC)c(OC)c(OC)c2ccccc12.Cl [TCMDC-137827]	-6.56	760	1670	–	–	–	HepG2 cells mean TOX50 (HepG2 cells; mean): 2.95 µM
CCc1ccccc1-c1csc(C(=O)NCC2CCN(Cc3ccc(C(C)(C)C)cc3)C2)c1.O=C(O)C(F)(F)F (centres unmarked) [TCMDC-134448]	–	–	–	-14.62	1150	1200	HepG2 cells mean TOX50 (HepG2 cells; HepG2 cells; mean): 7.67 µM
O=C(O)C(F)(F)F.O=S(=O)(NCCN1CCCC1)c1ccc(-c2cccc(CNC3Cc4ccccc4C3)c2)cc1 [TCMDC-132215]	–	–	–	9.62	620	2540	HepG2 cells mean TOX50 (HepG2 cells; HepG2 cells; mean): 6.03 µM
COc1c(CNCCCCCCNCc2cc(Cl)c3ccccc3c2OC)cc(Cl)c2ccccc12.CS(=O)(=O)O [TCMDC-137958]	-6.18	940	1180	–	–	–	HepG2 cells mean TOX50 (HepG2 cells; mean): 4.62 µM
CN1CCCC1CCNc1ncc2c(-c3ccc(NC(=O)Nc4cc(C(F)(F)F)ccc4F)c(F)c3)nn(C)c2n1.O=C(O)C(F)(F)F (centres unmarked) [TCMDC-141610]	–	–	–	-9.33	290	–	HepG2 cells mean TOX50 (HepG2 cells; mean; HepG2 cells): 4.62 µM; IC50 ([3]; P. falciparum female gametocyte activation assay): 1470 nM
CN(C)c1ccc(-c2csc(C(=O)NCC3CCN(Cc4ccc(C(C)(C)C)cc4)C3)c2)cc1.O=C(O)C(F)(F)F (centres unmarked) [TCMDC-134449]	–	–	–	-20.17	990	600	HepG2 cells mean TOX50 (HepG2 cells; HepG2 cells; mean): 7.24 µM
O=C(/C=C/c1ccc(Cl)c(Cl)c1)N1CCC(CN2CCC(c3c[nH]c4ccncc34)CC2)CC1 [TCMDC-140074]	-2.94	730	870	–	–	–	HepG2 cells mean TOX50 (HepG2 cells; mean): 5.32 µM
Clc1cccc(C23N=C(Nc4nc5ccccc5[nH]4)NC2(c2ccccc2)NC(Nc2nc4ccccc4[nH]2)=N3)c1 (centres unmarked) [TCMDC-139089]	71.66	520	150	–	–	–	HepG2 cells mean TOX50 (HepG2 cells; mean): 42.76 µM
CC(Cc1ccc(CNC(=O)NCc2ccc(CC(C)NCCc3cccc(Cl)c3)cc2)cc1)NCCc1cccc(Cl)c1 (centres unmarked) [TCMDC-139648]	12.15	690	–	–	–	–	HepG2 cells mean TOX50 (HepG2 cells; mean): 3.94 µM
COc1ccc(CNC(=O)c2cnc3c(O)cccc3c2Nc2cccc(NC(=O)c3ccc(Cl)c(Cl)c3)c2)cc1.O=C(O)C(F)(F)F [TCMDC-139607]	90.02	600	1600	–	–	–	–
CNC(=S)NN=C(C)c1ccccn1 [TCMDC-123475]	–	–	–	81.04	270	14	–
COc1ccc(CNC(=O)c2cnc3c(O)cccc3c2Nc2cccc(NC(=O)c3ccc(-c4ccccc4)cc3)c2)cc1.O=C(O)C(F)(F)F [TCMDC-139611]	88.95	940	1820	–	–	–	–
Cl.c1ccc2c(Nc3ccc(OCCOCCOc4ccc(Nc5c6ccccc6nc6ccccc56)cc4)cc3)c3ccccc3nc2c1 [TCMDC-137355]	-18.54	280	–	–	–	–	HepG2 cells mean TOX50 (HepG2 cells; mean): 5.59 µM
CC(C)(C)c1ccc(C(=O)Nc2cccc(Nc3c(C(=O)NCc4cccc(C(F)(F)F)c4)cnc4c(O)cccc34)c2)cc1.O=C(O)C(F)(F)F [TCMDC-139610]	83.54	1090	3630	–	–	–	–
CC(=NNC(=S)NC(C)(C)C)c1ccccn1 [TCMDC-137783]	84.85	160	40	–	–	–	–
Oc1c(C(Nc2nc3ccccc3s2)c2ccccc2)ccc2cccnc12 (centres unmarked) [TCMDC-125565]	–	–	–	91.61	650	3030	–
Cc1c(Cl)cccc1S(=O)(=O)Nc1ccc(CCN2CCC(N)CC2)cc1.Cl [TCMDC-134083]	–	–	–	-1.32	1460	–	HepG2 cells mean TOX50 (HepG2 cells; HepG2 cells; mean): 13.86 µM
CCn1c(-c2nonc2N)nc2c(-c3cccc(NC(=O)NC45CC6CC(CC(C6)C4)C5)c3)ncc(OCCCN)c21.O=C(O)C(F)(F)F [TCMDC-136246]	-16.91	–	1360	–	–	–	HepG2 cells mean TOX50 (HepG2 cells; mean): 6.10 µM
CC(=NNC(S)=NCc1ccco1)c1ccccn1 [TCMDC-137906]	77.01	250	20	–	–	–	–
NC(=Nc1nc(-c2ccccn2)cc2ccccc12)c1cccc(Cl)c1 [TCMDC-123745]	–	–	–	49.04	310	50	–
Cc1cc(C(=O)Nc2nc(-c3ccccn3)nc3ccsc23)no1 [TCMDC-135243]	–	–	–	53.53	810	350	–
CCN(CC)CC(O)CNc1c2ccc([N+](=O)[O-])cc2nc2cc(OC)c(OC)cc12.Cl (centres unmarked) [TCMDC-138079]	44.60	270	3890	–	–	–	–
Cc1ccc(Nc2nc(-c3ccccn3)cs2)nc1 [TCMDC-125854]	–	–	–	82.15	750	27.3	–
S=C(NN=Cc1ccccn1)NC1CC2C=CC1C2 (centres unmarked) [TCMDC-125752]	–	–	–	74.38	720	15.3	–
c1ccc(-c2csc(Nc3nc4cc5c(cc4s3)OCO5)n2)nc1 [TCMDC-124550]	–	–	–	56.70	580	32.3	–
